Measurements taken from US20220273683A1, “BORON-CONTAINING SMALL MOLECULES” (Bill & Melinda Gates Foundation, priority 2016, published 2022).

Experiments:
[1] = tested on: Staphylococcus aureus, MRSA (ATCC 33591); experiment: Antibacterial MIC assay (microbroth dilution, CLSI); format: cell-based; settings: 35° C., 16-20 hours
Description: (§1) All MIC testing of bacteria followed the Clinical and Laboratory Standards Institute (CLSI) guidelines for antimicrobial testing of aerobic bacteria (Methods for Dilution Antimicrobial Susceptibility Tests for Bacteria that Grow Aerobically; Approved Standard—Tenth Edition, M07-A10; Performance Standards for Antimicrobial Susceptibility Testing; Twenty-fifth Informational Supplement, M100-S25).
(§2) Briefly, the microbroth dilution MIC method was used to quantitatively measure the in vitro antibacterial activity of a compound against a given bacterial isolate. The following bacterial strains were evaluated: Staphylococcus aureus, MRSA (ATCC 33591) and Streptococcus pneumoniae (ATCC 49619). Bacteria were grown in cation-adjusted Mueller-Hinton broth, with additions as required per species growth requirements (e.g. 3% lysed horse blood for fastidious organisms such as S. pneumoniae). A direct colony suspension in saline was prepared from colonies on an overnight agar plate to achieve a turbidity equivalent to 0.5 McFarland standard, which was subsequently diluted into the assay plate to achieve 5×10^5 CFU/mL. Assays plates were prepared by 2-fold dilution of compound across the plate and included a positive growth control.

[2] = tested on: Streptococcus pneumoniae (ATCC 49619); experiment: as above; format: cell-based; settings: 3% lysed horse blood, 35° C., 16-20 hours
Description: as §1, §2

Structure (SMILES)	MIC Staphylococcus aureus, MRSA (ATCC 33591) [1]	MIC Streptococcus pneumoniae (ATCC 49619) [2]
C[C@@H]1CC[C@@]23CCC(=O)[C@H]2[C@]1(C)[C@H](OC(=O)COc1ccc2c(c1F)B(O)OC2)C[C@@](C)(CN)[C@@H](OS(C)(=O)=O)[C@@H]3C [Compound 50, (3aR,4R,5R,7S,8S,9R,9aS,12R)-7-(aminomethyl)-4,7,9,12-tetramethyl-8-((methylsulfonyl)oxy)-3-oxodecahydro-4,9a-propanocyclopenta[8]annulen-5-yl2-((7-fluoro-1-hydroxy-1,3-dihydrobenzo[c][1,2]oxaborol-6-yl)oxy)acetate]	C (4-32 is C)	C (4-32 is C)
Cc1nnc(/C=C/[C@]2(C)C[C@@H](OC(=O)COc3ccc4c(c3F)B(O)OC4)[C@]3(C)[C@H](C)CC[C@]4(CCC(=O)[C@H]43)[C@@H](C)[C@@H]2O)o1 [Compound 51, (3aR,4R,5R,7S,8S,9R,9aS,12R)-8-hydroxy-4,7,9,12-tetramethyl-7-((E)-2-(5-methyl-1,3,4-oxadiazol-2-yl)vinyl)-3-oxodecahydro-4,9a-propanocyclopenta[8]annulen-5-yl2-((7-fluoro-1-hydroxy-1,3-dihydrobenzo[c][1,2]oxaborol-6-yl)oxy)acetate]	B (0.5-2 is B)	B (0.5-2 is B)
CCCNC[C@]1(C)C[C@@H](OC(=O)COc2ccc3c(c2F)B(O)OC3)[C@]2(C)[C@H](C)CC[C@]3(CCC(=O)[C@H]32)[C@@H](C)[C@@H]1O [Compound 35, (3aR,4R,5R,7S,8S,9R,9aS,12R)-8-hydroxy-4,7,9,12-tetramethyl-3-oxo-7-((propylamino)methyl)decahydro-4,9a-propanocyclopenta[8]annulen-5-yl2-((7-fluoro-1-hydroxy-1,3-dihydrobenzo[c][1,2]oxaborol-6-yl)oxy)acetate]	C (4-32 is C)	C (4-32 is C)
C[C@@H]1CC[C@@]23CCC(=O)[C@H]2[C@]1(C)[C@H](OC(=O)COc1ccc2c(c1F)B(O)OC2)C[C@@](C)(CNC1CC1)[C@@H](O)[C@@H]3C [Compound 37, (3aR,4R,5R,7S,8S,9R,9aS,12R)-7-((cyclopropylamino)methyl)-8-hydroxy-4,7,9,12-tetramethyl-3-oxodecahydro-4,9a-propanocyclopenta[8]annulen-5-yl2-((7-fluoro-1-hydroxy-1,3-dihydrobenzo[c][1,2]oxaborol-6-yl)oxy)acetate]	B (0.5-2 is B)	C (4-32 is C)
C[C@@H]1CC[C@@]23CCC(=O)[C@H]2[C@]1(C)[C@H](OC(=O)COc1ccc2c(c1F)B(O)OC2)C[C@@](C)(C[S+](C)[O-])[C@@H](O)[C@@H]3C (stereo partly drawn) [Compound 30, (3aR,4R,5R,7R,8S,9R,9aS,12R)-8-hydroxy-4,7,9,12-tetramethyl-7-((methylsulfinyl)methyl)-3-oxodecahydro-4,9a-propanocyclopenta[8]annulen-5-yl2-((7-fluoro-1-hydroxy-1,3-dihydrobenzo[c][1,2]oxaborol-6-yl)oxy)acetate]	B (0.5-2 is B)	C (4-32 is C)
C[C@@H]1CC[C@@]23CCC(=O)[C@H]2[C@]1(C)[C@H](OC(=O)COc1ccc2c(c1F)B(O)OC2)C[C@@](C)(/C=C/C(=O)NN)[C@@H](O)[C@@H]3C [Compound 18, (3aR,4R,5R,7S,8S,9R,9aS,12R)-7-((E)-3-hydrazinyl-3-oxoprop-1-en-1-yl)-8-hydroxy-4,7,9,12-tetramethyl-3-oxodecahydro-4,9a-propanocyclopenta[8]annulen-5-yl2-((7-fluoro-1-hydroxy-1,3-dihydrobenzo[c][1,2]oxaborol-6-yl)oxy)acetate]	C (4-32 is C)	B (0.5-2 is B)
C[C@@H]1CC[C@@]23CCC(=O)[C@H]2[C@]1(C)[C@H](OC(=O)COc1ccc2c(c1F)B(O)OC2)C[C@@](C)(CCO)[C@@H](O)[C@@H]3C [Compound 25, (3aR,4R,5R,7R,8S,9R,9aS,12R)-8-hydroxy-7-(2-hydroxyethyl)-4,7,9,12-tetramethyl-3-oxodecahydro-4,9a-propanocyclopenta[8]annulen-5-yl2-((7-fluoro-1-hydroxy-1,3-dihydrobenzo[c][1,2]oxaborol-6-yl)oxy)acetate]	B (0.5-2 is B)	C (4-32 is C)
C[C@@H]1CC[C@@]23CCC(=O)[C@H]2[C@]1(C)[C@H](OC(=O)COc1ccc2c(c1F)B(O)OC2)C[C@@](C)(C=NO)[C@@H](O)[C@@H]3C [Compound 43, (3aR,4R,5R,7S,8S,9R,9aS,12R)-8-hydroxy-7-((hydroxyimino)methyl)-4,7,9,12-tetramethyl-3-oxodecahydro-4,9a-propanocyclopenta[8]annulen-5-yl2-((7-fluoro-1-hydroxy-1,3-dihydrobenzo[c][1,2]oxaborol-6-yl)oxy)acetate]	A (MIC of ≤0.25 is A)	C (4-32 is C)
C[C@@H]1CC[C@@]23CCC(=O)[C@H]2[C@]1(C)[C@H](OC(=O)COc1ccc2c(c1F)B(O)OC2)C[C@@](C)(CO)[C@@H](O)[C@@H]3C [Compound 23, (3aR,4R,5R,7S,8S,9R,9aS,12R)-8-hydroxy-7-(hydroxymethyl)-4,7,9,12-tetramethyl-3-oxodecahydro-4,9a-propanocyclopenta[8]annulen-5-yl2-((7-fluoro-1-hydroxy-1,3-dihydrobenzo[c][1,2]oxaborol-6-yl)oxy)acetate]	A (MIC of ≤0.25 is A)	C (4-32 is C)
C[C@@H]1CC[C@@]23CCC(=O)[C@H]2[C@]1(C)[C@H](OC(=O)COc1ccc2c(c1F)B(O)OC2)C[C@@](C)(/C=C/C(N)=O)[C@@H](O)[C@@H]3C [Compound 14, (3aR,4R,5R,7S,8S,9R,9aS,12R)-7-((E)-3-amino-3-oxoprop-1-en-1-yl)-8-hydroxy-4,7,9,12-tetramethyl-3-oxodecahydro-4,9a-propanocyclopenta[8]annulen-5-yl2-((7-fluoro-1-hydroxy-1,3-dihydrobenzo[c][1,2]oxaborol-6-yl)oxy)acetate]	B (0.5-2 is B)	B (0.5-2 is B)
C[C@@H]1CC[C@@]23CCC(=O)[C@H]2[C@]1(C)[C@H](OC(=O)COc1ccc2c(c1F)B(O)OC2)C[C@@](C)(CCC(=O)N1CCC(O)C1)[C@@H](O)[C@@H]3C (stereo partly drawn) [Compound 7, (3aR,4R,5R,7R,8S,9R,9aS,12R)-8-hydroxy-7-(3-(3-hydroxypyrrolidin-1-yl)-3-oxopropyl)-4,7,9,12-tetramethyl-3-oxodecahydro-4,9a-propanocyclopenta[8]annulen-5-yl2-((7-fluoro-1-hydroxy-1,3-dihydrobenzo[c][1,2]oxaborol-6-yl)oxy)acetate]	C (4-32 is C)	B (0.5-2 is B)
CNC[C@]1(C)C[C@@H](OC(=O)COc2ccc3c(c2F)B(O)OC3)[C@]2(C)[C@H](C)CC[C@]3(CCC(=O)[C@H]32)[C@@H](C)[C@@H]1O [Compound 32, (3aR,4R,5R,7S,8S,9R,9aS,12R)-8-hydroxy-4,7,9,12-tetramethyl-7-((methylamino)methyl)-3-oxodecahydro-4,9a-propanocyclopenta[8]annulen-5-yl2-((7-fluoro-1-hydroxy-1,3-dihydrobenzo[c][1,2]oxaborol-6-yl)oxy)acetate]	B (0.5-2 is B)	C (4-32 is C)
C[C@@H]1CC[C@@]23CCC(=O)[C@H]2[C@]1(C)[C@H](OC(=O)COc1ccc2c(c1F)B(O)OC2)C[C@@](C)(CN(C)C)[C@@H](O)[C@@H]3C [Compound 33, (3aR,4R,5R,7S,8S,9R,9aS,12R)-7-((dimethylamino)methyl)-8-hydroxy-4,7,9,12-tetramethyl-3-oxodecahydro-4,9a-propanocyclopenta[8]annulen-5-yl2-((7-fluoro-1-hydroxy-1,3-dihydrobenzo[c][1,2]oxaborol-6-yl)oxy)acetate]	B (0.5-2 is B)	C (4-32 is C)
C[C@@H]1CC[C@@]23CCC(=O)[C@H]2[C@]1(C)[C@H](OC(=O)COc1ccc2c(c1F)B(O)OC2)C[C@@](C)(CCN1CCC1)[C@@H](O)[C@@H]3C [Compound 39, (3aR,4R,5R,7R,8S,9R,9aS,12R)-7-(2-(azetidin-1-yl)ethyl)-8-hydroxy-4,7,9,12-tetramethyl-3-oxodecahydro-4,9a-propanocyclopenta[8]annulen-5-yl2-((7-fluoro-1-hydroxy-1,3-dihydrobenzo[c][1,2]oxaborol-6-yl)oxy)acetate]	C (4-32 is C)	C (4-32 is C)
